Where two headings read alike, the source gives them in different places.
Molecular target: T1, recombinant human GluN1/GluN2A receptor (Homo sapiens, UniProt Q05586+Q12879)
T1 construct: expressed in transfected cells; host or cells: HEK293, tetracycline-inducible expression
Experiment: Whole-cell patch clamp of mammalian cells (Syncropatch 384i), NMDA modulation
Type: cell-based
Settings: HEK293 cells, human GluN1/GluN2A, glutamate 1 μM / glycine 100 μM, -80 mV, peak amplitude increase; for EC50: read-out: EC50
Text: Whole-Cell Patch Clamp of Mammalian Cells (Syncropatch 384i (Nanion Technologies))
Whole-cell patch clamp electrophysiology was used to investigate the effects of compounds on GluN1/GluN2A N-methyl-D-aspartate (NMDA) glutamate receptors expressed in mammalian cells.
Human embryonic kidney (HEK293) cells expressing the recombinant human GluN1/GluN2A receptor under the control of a tetracycline-inducible expression system were used. Cells were maintained in Dulbecco's Modified Eagle's Medium (DMEM) with 1% glutamine, 10% Tetracycline System Approved fetal bovine serum (FBS), and NMDA inhibitors. Cells were cultured in a humidified 5% CO2 incubator at 37° C. Cells were induced with 50 ng/ml tetracycline 18-24 hours prior to testing. A cocktail of channel blockers was added to the media to prevent cell death.
Cells were 60-80% confluent at the time of harvest. Cells were detached from the flask TrypLE Enzyme Express (Thermo Fisher) at 37° C., and then cold extracellular solution was added to the flask, followed by incubation at 4° C. and then trituration of the cells. The cell solution was then placed on a shaker on the Syncropatch platform at 10° C. with a shake speed of a minimum 200 rpm for at least 30 minutes prior to testing.
Extracellular (EC) solution (in mM) —140 NaCl, 4 KCl, 5 CaCl2, 10 HEPES, 5 Glucose, pH 7.4 with NaOH. All external solutions contained 0.2% DMSO and 0.01% Kolliphor® EL (C5135, Sigma) throughout the experiment.
Intracellular (IC) solution (in mM) —120 CsF, 10 mM EGTA, 10 NaCl, 10 HEPES, 4 NaATP, 2 MgCl2, pH 7.2 with CsOH.
First, the DMSO Master Plate was prepared, in which the DMSO stock of each test compound was serially diluted in 100% DMSO to 1000× the final assay concentration. Immediately prior to assay testing, the compounds were diluted 1:100 by transferring solutions from the DMSO Mast Plate to the Intermediate Plate pre-filled with EC solution using a Biomek FX automated liquid handling system. Compounds were then diluted further with extracellular solution into two pre-incubation plates—1) compound from the Intermediate Plate was mixed with EC solution at a 1:5 dilution to create a 2× Compound Pre-Incubation Plate which was diluted a further 1:2 when added to the Syncropatch for the initial compound pre-incubation. And 2) compound from the Intermediate plate was mixed with EC solution at a 1:10 Dilution to create the 1× Compound Pre-Incubation Plate, which was used for subsequent compound pre-incubations. Finally, a Compound+Agonist Plate was prepared by mixing compound from the 2× Compound Pre-Incubation Plate with 2× concentration of co-agonists in a 1:1 ratio.
Each experiment sequentially included cell catching, sealing, whole-cell formation, liquid application, recording and data acquisition. Whole-cell patch clamp recordings were performed using multi-hole high resistance chips on the SyncroPatch 384i (Nanion Technologies). A steady-state voltage pulse at -80 mV was applied throughout the assay and a 10 second recording window was triggered around 1 second prior to application of co-agonists. Currents were leak corrected and sampled at 5 kHz.
A fast application was used, in which 5 μl co-agonist was rapidly applied at a speed of 30 μl/s and then rapidly removed from the well. To test for modulator activity, the co-agonists glutamate (1 μM) and glycine (100 μM) were applied three times to show activation reproducibility, followed by 120 seconds pre-incubation of test compound alone. The test compound was then re-applied in the presence of co-agonists two times. This was followed by application of the agonist alone, although test compound may not be fully washed from the well prior to this step. Finally, a saturating concentration of co-agonists (glutamate 100 μM/glycine 100 μM) was applied.
The voltage protocol generation data collection and analysis were performed on PatchControll384 and DataControll384. […]

T1 sequence (Q12879 23-1464, other chains not shown): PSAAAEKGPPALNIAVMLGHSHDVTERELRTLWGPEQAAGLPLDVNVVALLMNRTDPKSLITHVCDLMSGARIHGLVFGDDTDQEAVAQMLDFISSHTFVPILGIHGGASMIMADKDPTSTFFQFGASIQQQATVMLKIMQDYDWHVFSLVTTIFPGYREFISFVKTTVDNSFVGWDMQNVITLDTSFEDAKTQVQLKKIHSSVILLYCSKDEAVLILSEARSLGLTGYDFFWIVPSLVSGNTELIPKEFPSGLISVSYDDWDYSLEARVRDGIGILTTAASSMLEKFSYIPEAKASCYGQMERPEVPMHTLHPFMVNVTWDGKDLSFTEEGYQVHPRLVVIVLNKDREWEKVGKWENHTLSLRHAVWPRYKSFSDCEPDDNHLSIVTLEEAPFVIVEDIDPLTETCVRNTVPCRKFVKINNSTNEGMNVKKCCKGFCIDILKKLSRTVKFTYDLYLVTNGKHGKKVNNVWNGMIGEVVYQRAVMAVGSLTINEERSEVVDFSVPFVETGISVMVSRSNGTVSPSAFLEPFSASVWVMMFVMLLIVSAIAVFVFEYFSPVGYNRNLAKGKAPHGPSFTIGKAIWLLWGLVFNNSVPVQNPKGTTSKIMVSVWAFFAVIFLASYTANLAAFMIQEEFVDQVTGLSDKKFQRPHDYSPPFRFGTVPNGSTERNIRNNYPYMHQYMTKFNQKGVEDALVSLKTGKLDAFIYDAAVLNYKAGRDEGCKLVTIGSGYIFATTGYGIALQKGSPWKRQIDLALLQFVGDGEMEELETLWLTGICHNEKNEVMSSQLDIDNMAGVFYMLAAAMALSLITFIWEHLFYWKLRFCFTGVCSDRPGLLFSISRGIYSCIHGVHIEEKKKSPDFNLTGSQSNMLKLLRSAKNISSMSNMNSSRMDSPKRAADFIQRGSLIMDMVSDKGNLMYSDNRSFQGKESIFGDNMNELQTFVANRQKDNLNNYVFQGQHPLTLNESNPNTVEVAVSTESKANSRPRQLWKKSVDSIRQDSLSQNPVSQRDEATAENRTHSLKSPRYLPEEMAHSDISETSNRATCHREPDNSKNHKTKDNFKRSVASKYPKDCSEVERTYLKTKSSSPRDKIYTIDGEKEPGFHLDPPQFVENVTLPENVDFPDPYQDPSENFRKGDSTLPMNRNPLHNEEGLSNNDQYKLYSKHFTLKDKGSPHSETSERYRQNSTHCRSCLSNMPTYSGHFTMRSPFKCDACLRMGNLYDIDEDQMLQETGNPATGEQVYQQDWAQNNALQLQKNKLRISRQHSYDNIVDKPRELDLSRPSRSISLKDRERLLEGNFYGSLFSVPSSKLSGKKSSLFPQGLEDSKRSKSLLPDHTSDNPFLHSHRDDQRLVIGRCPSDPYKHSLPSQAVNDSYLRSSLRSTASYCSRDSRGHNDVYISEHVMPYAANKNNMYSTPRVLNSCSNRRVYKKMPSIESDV

SMILES: CC[C@]1(O)CC[C@@]2(C)C(=CC[C@H]3[C@@H]4CC[C@H]([C@@H](CC[C@@](C)(O)C(F)(F)F)OC)[C@@]4(C)CC[C@@H]32)C1 [Compound A-13, (3S,8S,9S,10R,13S,14S,17S)-3-ethyl-10,13-dimethyl-17-((1R,4R)-5,5,5-trifluoro-4-hydroxy-1-methoxy-4-methylpentyl)-2,3,4,7,8,9,10,11,12,13,14,15,16,17-tetradecahydro-1H-cyclopenta[a]phenanthren-3-ol]
- Emax (Table A-2): > 200%
- EC50 (Table A-2): 500 to 1000 nM

SMILES: CC[C@]1(O)CC[C@@]2(C)C(=CC[C@H]3[C@@H]4CC[C@H]([C@@H](CC[C@](C)(O)C(F)(F)F)OC)[C@@]4(C)CC[C@@H]32)C1 [Compound A-14, (3S,8S,9S,10R,13S,14S,17S)-3-ethyl-10,13-dimethyl-17-((1R,4S)-5,5,5-trifluoro-4-hydroxy-1-methoxy-4-methylpentyl)-2,3,4,7,8,9,10,11,12,13,14,15,16,17-tetradecahydro-1H-cyclopenta[a]phenanthren-3-ol]
- Emax (Table A-2): > 200%
- EC50 (Table A-2): 1 to 100 nM

SMILES: CC[C@]1(O)CC[C@@]2(C)C(=CC[C@H]3[C@@H]4CC[C@H]([C@@H](CC[C@@H](O)C(C)C)OC)[C@@]4(C)CC[C@@H]32)C1 [Compound A-15, (3S,8S,9S,10R,13S,14S,17S)-3-ethyl-17-((1R,4R)-4-hydroxy-1-methoxy-5-methylhexyl)-10,13-dimethyl-2,3,4,7,8,9,10,11,12,13,14,15,16,17-tetradecahydro-1H-cyclopenta[a]phenanthren-3-ol]
- Emax (Table A-2): > 200%
- EC50 (Table A-2): 1 to 100 nM

SMILES: CC[C@]1(O)CC[C@@]2(C)C(=CC[C@H]3[C@@H]4CC[C@H]([C@@H](CC[C@H](O)C(C)C)OC)[C@@]4(C)CC[C@@H]32)C1 [Compound A-16, (3S,8S,9S,10R,13S,14S,17S)-3-ethyl-17-((1R,4S)-4-hydroxy-1-methoxy-5-methylhexyl)-10,13-dimethyl-2,3,4,7,8,9,10,11,12,13,14,15,16,17-tetradecahydro-1H-cyclopenta[a]phenanthren-3-ol]
- Emax (Table A-2): > 200%
- EC50 (Table A-2): 1 to 100 nM

SMILES: CC[C@]1(O)CC[C@@]2(C)[C@@H](CC[C@@H]3[C@@H]2CC[C@]2(C)[C@@H]([C@H](CC[C@H](O)C(C)C)C(F)(F)F)CC[C@@H]32)C1 [Compound A-17, (3S,5S,8R,9S,10S,13S,14S,17R)-3-ethyl-10,13-dimethyl-17-((2S,5S)-1,1,1-trifluoro-5-hydroxy-6-methylheptan-2-yl)hexadecahydro-1H-cyclopenta[a]phenanthren-3-ol]
- EC50 (Table A-2): > 1000 nM

SMILES: CC[C@]1(O)CC[C@@]2(C)[C@@H](CC[C@@H]3[C@@H]2CC[C@]2(C)[C@@H]([C@H](CCCC(C)(C)O)C(F)(F)F)CC[C@@H]32)C1 [Compound A-18, (3S,5S,8R,9S,10S,13S,14S,17R)-3-ethyl-10,13-dimethyl-17-((S)-1,1,1-trifluoro-6-hydroxy-6-methylheptan-2-yl)hexadecahydro-1H-cyclopenta[a]phenanthren-3-ol]
- EC50 (Table A-2): > 1000 nM

SMILES: CC[C@@H](CCCC(C)(C)O)[C@H]1CC[C@H]2[C@@H]3CC[C@H]4C[C@](O)(CC)CC[C@]4(C)[C@H]3CC[C@]12C [Compound A-20, (3S,5S,8R,9S,10S,13R,14S,17R)-3-ethyl-17-((S)-7-hydroxy-7-methyloctan-3-yl)-10,13-dimethylhexadecahydro-1H-cyclopenta[a]phenanthren-3-ol]
- EC50 (Table A-2): > 1000 nM

SMILES: CC[C@]1(O)CC[C@@]2(C)[C@@H](CC[C@@H]3[C@@H]2CC[C@]2(C)[C@@H]([C@@H](CC[C@@](C)(O)C(F)(F)F)OC)CC[C@@H]32)C1 [Compound A-23, (3S,5S,8R,9S,10S,13S,14S,17S)-3-ethyl-10,13-dimethyl-17-((1R,4R)-5,5,5-trifluoro-4-hydroxy-1-methoxy-4-methylpentyl) hexadecahydro-1H-cyclopenta[a]phenanthren-3-ol]
- EC50 (Table A-2): 500 to 1000 nM

SMILES: CC[C@]1(O)CC[C@@]2(C)[C@@H](CC[C@@H]3[C@@H]2CC[C@]2(C)[C@@H]([C@@H](CC[C@](C)(O)C(F)(F)F)OC)CC[C@@H]32)C1 [Compound A-24, (3S,5S,8R,9S,10S,13S,14S,17S)-3-ethyl-10,13-dimethyl-17-((1R,4S)-5,5,5-trifluoro-4-hydroxy-1-methoxy-4-methylpentyl) hexadecahydro-1H-cyclopenta[a]phenanthren-3-ol]
- EC50 (Table A-2): 100 to 500 nM

SMILES: CC[C@]1(O)CC[C@@]2(C)[C@@H](CC[C@H]3[C@@H]4[C@@H]5C[C@@H]5[C@H]([C@H](C)CCCC(C)(C)O)[C@@]4(C)CC[C@@H]32)C1 [Compound B-1, (2S,4aS,4bS,6aR,7S,7aS,8aR,8bS,8cR,10aS)-2-ethyl-7-((R)-6-hydroxy-6-methylheptan-2-yl)-4a,6a-dimethyloctadecahydrocyclopropa[4,5]cyclopenta[1,2-a]phenanthren-2-ol]
- Emax (Table B-2): > 200%
- EC50 (Table B-2): 1 to 100 nM

SMILES: CC[C@]1(O)CC[C@@]2(C)[C@@H](CC[C@H]3[C@@H]4[C@@H]5C[C@@H]5[C@H]([C@H](C)CC[C@@](C)(O)C(F)(F)F)[C@@]4(C)CC[C@@H]32)C1 [Compound B-2, (2S,4aS,4bS,6aR,7S,7aS,8aR,8bS,8cR,10aS)-2-ethyl-4a,6a-dimethyl-7-((2R,5R)-6,6,6-trifluoro-5-hydroxy-5-methylhexan-2-yl)octadecahydrocyclopropa[4,5]cyclopenta[1,2-a]phenanthren-2-ol]
- Emax (Table B-2): > 200%
- EC50 (Table B-2): 100 to 500 nM

SMILES: CC[C@]1(O)CC[C@@]2(C)[C@@H](CC[C@H]3[C@@H]4[C@@H]5C[C@@H]5[C@H]([C@H](C)CC[C@](C)(O)C(F)(F)F)[C@@]4(C)CC[C@@H]32)C1 [Compound B-3, (2S,4aS,4bS,6aR,7S,7aS,8aR,8bS,8cR,10aS)-2-ethyl-4a,6a-dimethyl-7-((2R,5S)-6,6,6-trifluoro-5-hydroxy-5-methylhexan-2-yl)octadecahydrocyclopropa[4,5]cyclopenta[1,2-a]phenanthren-2-ol]
- Emax (Table B-2): > 200%
- EC50 (Table B-2): 1 to 100 nM

SMILES: CC[C@]1(O)CC[C@@]2(C)[C@@H](CC[C@H]3[C@@H]4[C@H]5C[C@H]5[C@H]([C@H](C)CCCC(C)(C)O)[C@@]4(C)CC[C@@H]32)C1 [Compound B-4, (2S,4aS,4bS,6aR,7S,7aR,8aS,8bS,8cR,10aS)-2-ethyl-7-((R)-6-hydroxy-6-methylheptan-2-yl)-4a,6a-dimethyloctadecahydrocyclopropa[4,5]cyclopenta[1,2-a]phenanthren-2-ol]
- Emax (Table B-2): > 200%
- EC50 (Table B-2): 1 to 100 nM

SMILES: CC[C@]1(O)CC[C@@]2(C)[C@@H](CC[C@H]3[C@@H]4[C@H]5C[C@H]5[C@H]([C@H](C)CC[C@](C)(O)C(F)(F)F)[C@@]4(C)CC[C@@H]32)C1 [Compound B-5, (2S,4aS,4bS,6aR,7S,7aR,8aS,8bS,8cR,10aS)-2-ethyl-4a,6a-dimethyl-7-((2R,5S)-6,6,6-trifluoro-5-hydroxy-5-methylhexan-2-yl)octadecahydrocyclopropa[4,5]cyclopenta[1,2-a]phenanthren-2-ol]
- Emax (Table B-2): > 200%
- EC50 (Table B-2): 100 to 500 nM

SMILES: CC[C@]1(O)CC[C@@]2(C)[C@@H](CC[C@H]3[C@@H]4[C@H]5C[C@H]5[C@H]([C@H](C)CCC(C)(C)O)[C@@]4(C)CC[C@@H]32)C1 [Compound B-6]
- Emax (Table B-2): > 200%
- EC50 (Table B-2): 100 to 500 nM

Reference: patent publication US20240368214A1, “POSITIVE NMDA-MODULATING COMPOUNDS AND METHODS OF USE THEREOF” (SAGE THERAPEUTICS, INC., priority 2021, published 2024)
